Test results published in patent US8461152B2, “Arylcyclohexylethers of dihydrotetraazabenzoazulenes” (Hoffmann-La Roche Inc., priority 2008, dated 2013).
Counter-ions that a name gives are not always drawn.

Target: T1, human V1a receptor (Homo sapiens, UniProt P37288)
T1 construct: expressed in transfected cells; host or cells: HEK293 cells, transiently transfected; membrane preparation
Assay: human V1a receptor binding studies (SPA, 3H-Vasopressin, membranes of transfected HEK293 cells)
Settings: displacement of 3H-Vasopressin, HEK293 cell membranes, 1 h at room temperature; Ki by Cheng-Prussoff equation; read-out: pKi (hV1a) (converted)
Experimental: The human V1a receptor was cloned by RT-PCR from total human liver RNA. The coding sequence was subcloned in an expression vector after sequencing to confirm the identity of the amplified sequence. […] Cell membranes were prepared from HEK293 cells transiently transfected with the expression vector and grown in 20 liter fermenters with the following protocol.
50 g of cells are resuspended in 30 ml freshly prepared ice cold Lysis buffer (50 mM HEPES, 1 mM EDTA, 10 mM magnesium dichloride adjusted to pH=7.4+complete cocktail of protease inhibitor (Roche Diagnostics)). Homogenized with Polytron for 1 min and sonicated on ice for 2×2 minutes at 80% intensity (Vibracell sonicator). The preparation is centrifuged 20 min at 500 g at 4° C., the pellet is discarded and the supernatant centrifuged 1 hour at 43'000 g at 4° C. (19'000 rpm). The pellet is resuspended in 12.5 ml Lysis buffer+12.5 ml Sucrose 20% and homogenized using a Polytron for 1-2 min. The protein concentration is determined by the Bradford method and aliquots are stored at −80° C. until use. For binding studies 60 mg Yttrium silicate SPA beads (Amersham) are mixed with an aliquot of membrane in binding buffer (50 mM Tris, 120 mM sodium chloride, 5 mM potassium chloride, 2 mM Calcium dichloride, 10 mM magnesium dichloride) for 15 minutes with mixing. 50 μl of bead/membrane mixture is then added to each well of a 96 well plate, followed by 50 μl of 4 nM 3H-Vasopressin (American Radiolabeled Chemicals). For total binding measurement 100 μl of binding buffer are added to the respective wells, for non-specific binding 100 μl of 8.4 mM cold vasopressin and for compound testing 100 μl of a serial dilution of each compound in 2% dimethyl sulfoxide. The plate is incubated 1 h at room temperature, centrifuged […] at 1000 g and counted on a Packard Top-Count. Non-specific binding counts are subtracted from each well and data is normalized to the maximum specific binding set at 100%. To calculate an IC 50 the curve is fitted using a non-linear regression model (XLfit) and the Ki is calculated using the Cheng-Prussoff equation.

T1 sequence (P37288 whole entry): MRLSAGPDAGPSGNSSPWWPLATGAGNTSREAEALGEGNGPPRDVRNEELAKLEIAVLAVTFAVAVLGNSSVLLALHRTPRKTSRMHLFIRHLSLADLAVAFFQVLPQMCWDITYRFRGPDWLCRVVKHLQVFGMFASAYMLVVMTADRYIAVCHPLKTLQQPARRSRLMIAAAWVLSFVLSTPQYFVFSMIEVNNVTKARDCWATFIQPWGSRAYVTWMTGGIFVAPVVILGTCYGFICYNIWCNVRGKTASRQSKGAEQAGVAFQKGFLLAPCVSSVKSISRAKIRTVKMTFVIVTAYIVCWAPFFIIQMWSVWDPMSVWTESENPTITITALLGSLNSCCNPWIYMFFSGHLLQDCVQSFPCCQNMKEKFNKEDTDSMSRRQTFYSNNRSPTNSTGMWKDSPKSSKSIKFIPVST

Q: How did the Ki turn out when `CC(C)(C)OC(=O)N1Cc2cc(Cl)ccc2-n2c(nnc2[C@H]2CC[C@H](Oc3ccccc3)CC2)C1` [Example 1, trans-8-Chloro-1-(4-phenoxy-cyclohexyl)-4H,6H-2,3,5,10b-tetraaza-benzoazulene-5-carboxylic acid tert-butyl ester] was run?
A: The Ki was 3.24 nM.

Q: How did the Ki turn out when `Clc1ccc2c(c1)CNCc1nnc([C@H]3CC[C@H](Oc4ccccc4)CC3)n1-2` [Example 2, trans-8-Chloro-1-(4-phenoxy-cyclohexyl)-5,6-dihydro-4H-2,3,5,10b-tetraaza-benzoazulene hydrochloride] was run?
A: The Ki was 4.37 nM.

Q: How did the Ki turn out when `CN1Cc2cc(Cl)ccc2-n2c(nnc2[C@H]2CC[C@H](Oc3ccccc3)CC2)C1` [Example 3, trans-8-Chloro-5-methyl-1-(4-phenoxy-cyclohexyl)-5,6-dihydro-4H-2,3,5,10b-tetraaza-benzo[e]azulene] was run?
A: The Ki was 1.58 nM.

Q: With `CC(=O)N1Cc2cc(Cl)ccc2-n2c(nnc2[C@H]2CC[C@H](Oc3ccccc3)CC2)C1` [Example 4, trans-1-[8-Chloro-1-(4-phenoxy-cyclohexyl)-4H,6H-2,3,5,10b-tetraaza-benzoazulen-5-yl]-ethanone] as the compound, how does the Ki read?
A: The Ki was 1.41 nM.

Q: `CS(=O)(=O)N1Cc2cc(Cl)ccc2-n2c(nnc2[C@H]2CC[C@H](Oc3ccccc3)CC2)C1` [Example 5, trans-8-Chloro-5-methanesulfonyl-1-(4-phenoxy-cyclohexyl)-5,6-dihydro-4H-2,3,5,10b-tetraaza-benzoazulene] was tested. Which Ki did it give?
A: The Ki was 1.7 nM.

Q: Which Ki does the source give for `OCCN1Cc2cc(Cl)ccc2-n2c(nnc2[C@H]2CC[C@H](Oc3ccccc3)CC2)C1` [Example 6, trans-2-[8-Chloro-1-(4-phenoxy-cyclohexyl)-4H,6H-2,3,5,10b-tetraaza-benzoazulen-5-yl]-ethanol] here?
A: The Ki was 1.58 nM.

Q: Which Ki does the source give for `CC(C)N1Cc2cc(Cl)ccc2-n2c(nnc2[C@H]2CC[C@H](Oc3ccccc3)CC2)C1` [Example 7, trans-8-Chloro-5-isopropyl-1-(4-phenoxy-cyclohexyl)-5,6-dihydro-4H-2,3,5,10b-tetraaza-benzoazulene] here?
A: The Ki was 1.7 nM.

Q: `CN(C)S(=O)(=O)N1Cc2cc(Cl)ccc2-n2c(nnc2[C@H]2CC[C@H](Oc3ccccc3)CC2)C1` [Example 8, trans-8-Chloro-1-(4-phenoxy-cyclohexyl)-4H,6H-2,3,5,10b-tetraaza-benzoazulene-5-sulfonic acid dimethylamide] was tested. Which Ki did it give?
A: The Ki was 2 nM.

Q: Which Ki does the source give for `Clc1ccc2c(c1)CN(Cc1ccccn1)Cc1nnc([C@H]3CC[C@H](Oc4ccccc4)CC3)n1-2` [Example 9, trans-8-Chloro-1-(4-phenoxy-cyclohexyl)-5-pyridin-2-ylmethyl-5,6-dihydro-4H-2,3,5,10b-tetraaza-benzoazulene] here?
A: The Ki was 1.82 nM.

Q: `CN(C)CC(=O)N1Cc2cc(Cl)ccc2-n2c(nnc2[C@H]2CC[C@H](Oc3ccccc3)CC2)C1` [Example 10, trans-1-[8-Chloro-1-(4-phenoxy-cyclohexyl)-4H,6H-2,3,5,10b-tetraaza-benzoazulen-5-yl]-2-dimethylamino-ethanone] was tested. Which Ki did it give?
A: The Ki was 2.09 nM.

Q: `CC(C)(C)OC(=O)N1Cc2cc(F)ccc2-n2c(nnc2[C@H]2CC[C@H](Oc3ccccc3)CC2)C1` [Example 11, trans-8-Fluoro-1-(4-phenoxy-cyclohexyl)-4H,6H-2,3,5,10b-tetraaza-benzo[e]azulene-5-carboxylic acid tert-butyl ester] was tested. Which Ki did it give?
A: Its Ki is 5.5 nM.

Q: Which Ki does the source give for `CN1Cc2cc(F)ccc2-n2c(nnc2[C@H]2CC[C@H](Oc3ccccc3)CC2)C1` [Example 13, trans-8-Fluoro-5-methyl-1-(4-phenoxy-cyclohexyl)-5,6-dihydro-4H-2,3,5,10b-tetraaza-benzoazulene] here?
A: Its Ki is 5.37 nM.

Q: With `CC(C)(C)OC(=O)N1Cc2cc(Cl)ccc2-n2c(nnc2[C@H]2CC[C@@H](Oc3ccccc3)CC2)C1` [Example 14, cis-8-Chloro-1-(4-phenoxy-cyclohexyl)-4H,6H-2,3,5,10b-tetraaza-benzoazulene-5-carboxylic acid tert-butyl ester] as the compound, how does the Ki read?
A: The Ki was 9.33 nM.

Q: With `CN1Cc2cc(Cl)ccc2-n2c(nnc2[C@H]2CC[C@@H](Oc3ccccc3)CC2)C1` [Example 16, cis-8-Chloro-5-methyl-1-(4-phenoxy-cyclohexyl)-5,6-dihydro-4H-2,3,5,10b-tetraaza-benzoazulene] as the compound, how does the Ki read?
A: The Ki was 2.88 nM.
